# Measured values taken from US9499493B2, “2,4-pyrimidinediamine compounds and their uses” (Rigel Pharmaceuticals, Inc., priority 2002, dated 2016).
# Where two headings read alike, the source gives them in different places.
# Columns and labels:
# [1] = test system: bone marrow derived mast cells (BMMC); assay: BMMC high cell density IgE activation: hexosaminidase; assay type: cell-based, mouse; details: anti-IgE, second part of TABLE 1, read-out: BMMC anti-IgE hexos. IC50
# How it was run: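 IgE-sensitized BMMC at 1-3×10^6 cells/ml preincubated 1 hour at 37° C. with compound (0.5% DMSO), then stimulated 1 hour with DNP-BSA (6× stimulus 60 ng/ml). Supernatant hexosaminidase measured with 2 mM 4-methylumbelliferyl-N-acetyl-glucosaminide substrate at 37° C., read at 5–30 minutes.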
# basophil cells [2] = assay: Basophil IgE activation: histamine release assay; assay type: cell-based, human; details: Basophils, anti-IgE
# Protocol: (§1) The basophil activation assay was carried out using whole human peripheral blood from donors allergic to dust mites with the majority of the red blood cells removed by dextran sedimentation. Human peripheral blood was mixed 1:1 with 3% dextran T500 and RBCs were allowed to settle for 20-25 min. The upper fraction was diluted with 3 volumes of D-PBS and cells were spun down for 10 min at 1500 rpm, RT. Supernatant was aspirated and cells were washed in an equal volume MT-buffer. Finally, cells were resuspended in MT-buffer containing 0.5% DMSO in the original blood volume. 80 uL cells were mixed with 20 uL compound in the presence of 0.5% DMSO, in triplicate, in a V-bottom 96-well tissue culture plate. A dose range of 8 compound concentrations was tested resulting in a 10-point dose response curve including maximum (stimulated) and minimum (unstimulated) response. […] The cells were stimulated for 30 minutes at 37° C., 5% CO2. The plate was spun for 10 min at 1500 rpm at room temperature and 80 uL the supernatant was harvested for histamine content analysis using the histamine ELISA kit supplied by Immunotech. The ELISA was performed according to supplier's instructions.
# basophil cells [3] = assay: Basophil ionomycin activation: histamine release assay; assay type: cell-based, human; details: Basophils
# Protocol: as §1
# Assays for ionomycin-induced basophil cell degranulation were carried out as described for the Basophil IgE or Dustmite Activation Assay (Section 6.4.6, supra), with the exception that following incubation with compound, cells were stimulated with 20 μl of 2 μM ionomycin.
# [4] = test system: cultured human mast cells (CHMC); assay: CHMC low cell density anti-IgE activation: hexosaminidase (Hexos.) release; assay type: cell-based
# [5] = test system: bone marrow derived mast cells (BMMC); assay: BMMC high cell density ionomycin activation: hexosaminidase; assay type: cell-based, mouse; details: second part of TABLE 1, read-out: BMMC Ionomycin hexos. IC50
# [6] = test system: cultured human mast cells (CHMC); assay: CHMC low cell density ionomycin activation: hexosaminidase (Hexos.) release; assay type: cell-based
# [7] = test system: FcγRI-mediated degranulation; assay: FcγRI receptor-mediated degranulation (activation with anti-human IgG Fab fragment); assay type: cell-based; details: cells not primed with IgE, activated with rabbit anti-human IgG Fab fragment
# [8] = in vitro chromosomal aberration assay
# [9] = assay type: in vivo; details: rat, 50, 150 and 300 mg/kg
# [10] = Pharmacokinetics / oral bioavailability in rats; assay type: in vivo; details: rat, in vivo
# Protocol: Over 50 2,4-pyrimidinediamine compounds of the invention were tested for oral bioavailability. For the study, compounds were dissolved in various vehicles (e.g. PEG 400 solution and CMC suspension) for intravenous and oral dosing in the rats. Following administration of the drug, plasma samples were obtained and extracted. The plasma concentrations of the compounds were determined by high performance liquid chromatography/tandem mass spectrometry (LC/MS/MS) methods. Pharmacokinetic analyses were performed based on the plasma concentration data. The pharmacokinetic parameters of interest include Clearance (CL), Volume of distribution at steady-state (Vss), terminal half-life (t1/2), and oral bioavailability (% F).
# [11] = Mouse model of passive cutaneous anaphylaxis (PCA); assay type: in vivo; details: mouse, plasma, PO, 1.5% Avicel/water, 200 mg/kg, read-out: Plasma level (duration of action)
# Protocol: (§2) This model provides a direct measure of IgE-induced degranulation of tissue mast cells. In this model, IgE primed animals are exposed to an allergen challenge, and the change in permeability of dermal vasculature that results from histamine release from mast cells is measured by change in the amount of dye leakage into surrounding tissue. Inhibition of mediator release by compounds that modulate mast cell degranulation is easily measured by extracting the dye from the tissue.
# (§3) In the PCA assay mice are passively sensitized by intradermal injection with anti-dinitrophenol (DNP) IgE antibodies (Day −1). At predetermined times animals are treated with the test agent (Day 0). The modulatory effect of the agent on cutaneous mast cell degranulation is measured following intravenous injection of DNP conjugated to human serum albumin (HSA-DNP), together with Evans blue dye. The resulting cross-linking of the IgE receptor and subsequent mast cell degranulation-induced increase in vascular permeability is determined by measuring the amount of dye extravasation into the tissue. Dye is extracted from the tissue by formamide, and the absorbance of this extract is read at 620 nm.
# [12] = test system: IgE-induced degranulation of tissue mast cells; assay: Mouse model of passive cutaneous anaphylaxis (PCA); assay type: in vivo; details: for Plasma level / % Inhibition (PCA): PO
# Protocol: as §2, §3
# [13] = mouse, in vivo
# in vivo = details: mouse, po
# [14] = test system: Salmonella-Escherichia coli tester strains; details: Salmonella / Escherichia coli
# BMMC cells = assay: Phosphorylation of proteins downstream of Syk kinase in the IgE receptor cascade, activated BMMC cells; assay type: cell-based, mouse; details: varying concentrations, FIG. 7
# CHMC cells [15] = assay: Phosphorylation of proteins downstream of Syk / LYN kinase in the FcεRI cascade, activated CHMC cells; assay type: cell-based, human; details: varying concentrations, FIG. 10
# [16] = Immediacy (time course) of inhibitory activity; assay type: cell-based; details: FIG. 5
# CHMC cells [17] = assay: anti-IgE-induced calcium ion flux in CHMC cells; assay type: cell-based, human; details: 10 μM compound
# CHMC cells [18] = assay: ionomycin-induced calcium ion flux in CHMC cells; assay type: cell-based, human; details: 10 μM compound
# [19] = 14-day repeat-dose intranasal toxicity study in Cynomolgus monkeys; assay type: in vivo
# Protocol: A 14-day repeat-dose intranasal toxicity study in Cynomolgus monkeys was performed at doses of 2.1, 4.5 or 6.3 mg/kg/day. In life parameters included: clinical observations, body weights, food consumption, ophthalmology, blood pressure, electrocardiography, hematology, clinical chemistry, urinalysis, immunotoxicological assessment, gross necropsy, organ weights, toxicokinetic assessments and histopathology (including the nasal cavity).
# [20] = 14-day repeat-dose intranasal toxicity study in New Zealand White rabbits; assay type: in vivo
# Protocol: A 14-day repeat-dose intranasal toxicity study in New Zealand White rabbits was performed at doses of 1.7, 3.4 or 5.0 mg/kg/day. In life parameters included: clinical observations, body weights, food consumption, ophthalmology, hematology, clinical chemistry, gross necropsy, organ weights, toxicokinetic assessments and histopathology (including the nasal cavity).
# [21] = 14-day repeat-dose toxicity studies (summary of non-clinical safety program); assay type: in vivo, rabbits and primates; mice and rats
# Description: (§4) A short discussion of key toxicology studies is provided.
# [22] = Core safety pharmacology battery (cardiovascular, respiratory, central nervous system function); details: in vivo
# Description: as §4
# [23] = Genetic toxicology testing
# Description: as §4
# [24] = Exposure to skin and eyes; details: in vivo
# Description: as §4
# [25] = Sheep model of allergic asthma (Ascaris suum challenge); assay type: in vivo
# Protocol: Sheep develop bronchoconstriction within minutes of exposure to inhaled antigen (Ascaris suum), with maximal airflow obstruction during the early allergic response (EAR). Release of preformed mast cell mediators is likely responsible for this early phase of airflow obstruction. […] In the sheep, AHR develops a few hours following antigen challenge, and can persist for up to 2 weeks.
# In the sheep model of allergic asthma, sheep are administered aerosols of test article via an endotracheal tube, followed by an aerosol challenge with antigen extracted from the roundworm, Ascaris suum, to which the sheep are naturally allergic. Allergen challenge leads to direct bronchoconstriction (both EAR and LAR) and a persistent non-specific AHR. These three characteristics are similar to those seen in human allergic asthmatics. The activity of the test agent is determined by changes in the lung resistance (RL), which is calculated from measurements of transpulmonary pressure, flow, and respiratory volume. […] The LAR is a less pronounced increase in RL, which starts approximately 5-6 hours following allergen challenge and is resolved by 8 hours post-challenge. Twenty-four hours after the challenge, a dose response to carbachol is measured to determine the AHR, which is expressed as the dose of carbachol required to increase RL by 400% over baseline. (This measurement is referred to as the provocative concentration of carbachol that elicits a 400% increase in RL over baseline (PC400). The data are compared to historical control data for the same individual when administered a saline control aerosol and challenged with Ascaris suum.
# Syk kinase = Syk kinase (Homo sapiens (Human), UniProt P43405); assay: Isolated Syk kinase: phosphorylation of a peptide substrate or endogenous substrate (LAT); details: increasing concentrations; FIG. 8
# [26] = 67% PEG/33% citrate buffer, pretreatment 10 min, 50 mg/kg
# [27] = 67% PEG/33% citrate buffer, pretreatment 10 min, 100 mg/kg
# [28] = 67% PEG/33% citrate buffer, pretreatment 10 min, 200 mg/kg
# [29] = 30 mg/sheep, pretreatment 15 min, 10% ethanol
structure (smiles),measurement,setting,value
"Fc1cnc(Nc2ccc(N3CCOCC3)cc2)nc1Nc1ccc(N2CCOCC2)cc1 [R926114, N2,N4-Bis[4-(N-morpholino)phenyl]-5-fluoro-2,4-pyrimidinediamine]",IC50,[1],> 10 µM
same,IC50,basophil cells [2],1.7 µM
same,IC50,basophil cells [3],10 µM
same,IC50,[4],3.43 µM
same,IC50,[5],> 10 µM
same,IC50,[6],8.1 µM
"Nc1cccc(Nc2ncc(F)c(Nc3cccc(N)c3)n2)c1 [R921302, N2,N4-Bis(3-aminophenyl)-5-fluoro-2,4-pyrimidinediamine]",FcγRI-mediated degranulation (in words),[7],inhibit FcγRI-mediated degranulation
same,clastogenic potential,[8],not clastogenic
same,"tolerability, oral doses for 32 days",[9],appeared to be well tolerated
same,metabolic stability in pharmacokinetics studies (in words),[10],most metabolically stable compound
same,concentration at 30 min,[11]; pretreatment 30 min,88 µg/mL
same,concentration at 60 min,[11]; pretreatment 60 min,53 µg/mL
same,concentration at 120 min,[11]; pretreatment 120 min,61 µg/mL
same,concentration at 240 min,[11]; pretreatment 240 min,8 µg/mL
same,Plasma level,"[12]; 1.5% Avicel/water, pretreatment 60 min, 50 mg/kg",25 µg/mL
same,Plasma level,"[12]; 1.5% Avicel/water, pretreatment 60 min, 100 mg/kg",38 µg/mL
same,Plasma level,"[12]; 1.5% Avicel/water, pretreatment 60 min, 150 mg/kg",64 µg/mL
same,Plasma level,"[12]; 1.5% Avicel/water, pretreatment 60 min, 200 mg/kg",105 µg/mL
same,time prior to antigen-induced receptor signaling over which vascular permeability was inhibited before efficacy began to decrease,"[12]; mouse, in vivo",1 to 2 h
same,oral dose tolerated for up to 7-days,[13],1000 mg/kg
same,"tolerability, 28-day oral toxicity study",[13]; 100 mg/kg,appeared to be well tolerated
same,"tolerability, 28-day oral toxicity study",[13]; 300 mg/kg,not tolerated
same,NOAEL at 14 days,in vivo,100 mg/kg
same,Ames test result,[14],"test positive in tester strain TA98 with S9 and TA1537, with and without metabolic activation"
"Oc1cccc(Nc2ncc(F)c(Nc3cccc(O)c3)n2)c1 [R921218, N2,N4-Bis(3-hydroxyphenyl)-5-fluoro-2,4-pyrimidinediamine]",phosphorylation of various proteins downstream of Syk kinase,BMMC cells,inhibit
same,phosphorylation of proteins downstream of Syk kinase,CHMC cells [15],inhibit
same,onset of inhibitory activity,[16],immediacy of the inhibitory activity
same,FcγRI-mediated degranulation (in words),[7],inhibit FcγRI-mediated degranulation
same,anti-IgE-induced Ca2+ flux,CHMC cells [17],inhibited
same,ionomycin-induced Ca2+ flux,CHMC cells [18],no effect
same,NOAEL at 14 days,"[19]; cynomolgus monkey, in vivo, inhaled or intranasal, intranasal, Cynomolgus monkeys, read-out: NOAEL (no observed adverse effect level)",6.3 mg/kg/day
same,adverse findings,"[19]; intranasal 2.1, 4.5 or 6.3 mg/kg/day",no adverse findings
same,adverse findings,"[20]; intranasal 1.7, 3.4 or 5.0 mg/kg/day",no adverse findings
same,NOAEL at 14 days,"[20]; rabbit, in vivo, inhaled or intranasal, intranasal, New Zealand White rabbits, read-out: NOAEL (no observed adverse effect level)",5 mg/kg/day
same,"dose limiting toxicity, intranasal route, non-rodents (rabbits and primates)",[21],no dose limiting toxicity
same,"dose limiting toxicity, oral route, rodents (mice and rats)",[21],no dose limiting toxicity
same,findings in core safety pharmacology battery,[22],no adverse findings
same,mutagenic or clastogenic potential,[23],no evidence for mutagenic or clastogenic potential
same,effects after exposure to skin and eyes,[24],nor were there untoward effects
same,% Inhibition (PCA),[12]; [26],7%
same,Plasma level,[12]; [26],3 µg/mL
same,% Inhibition (PCA),[12]; [27],11%
same,Plasma level,[12]; [27],4 µg/mL
same,% Inhibition (PCA),[12]; [28],50%
same,Plasma level,[12]; [28],18 µg/mL
same,FcεR-mediated vascular leakage with increasing doses (in words),[12]; solution (67% PEG/33% citrate buffer) or aqueous suspension (1.5% Avicel),dose-dependent inhibition
same,AHR (% inhibition),[25]; [29],101%
same,EAR (% inhibition),[25]; [29],66%
same,LAR (% inhibition),[25]; [29],78%
same,EAR (in words),[25]; aqueous suspension,failed to inhibit
same,Syk kinase phosphorylation of a peptide substrate,Syk kinase,dose responsive inhibition
same,Syk kinase phosphorylation of an endogenous substrate (LAT),Syk kinase,dose responsive inhibition
